This passage reports IC50 results from paper PMC10779787, “An Efficient Synthesis of 1-(1,3-Dioxoisoindolin-2-yl)-3-aryl Urea Analogs as Anticancer and Antioxidant Agents: An Insight into Experimental and In Silico Studies” (Molecules, 2023).

The experiment deals with EGFR (Homo sapiens, UniProt P00533). The experiment in a line: EGFR kinase assay kit (BPS Bioscience), Kinase-Glo MAX luminescence, poly(Glu:Tyr […]) substrate. The format is biochemical. (In general: Kinase-Glo reads ATP consumption through a luciferase reaction.)
Chain of EGFR (P00533 25-1210): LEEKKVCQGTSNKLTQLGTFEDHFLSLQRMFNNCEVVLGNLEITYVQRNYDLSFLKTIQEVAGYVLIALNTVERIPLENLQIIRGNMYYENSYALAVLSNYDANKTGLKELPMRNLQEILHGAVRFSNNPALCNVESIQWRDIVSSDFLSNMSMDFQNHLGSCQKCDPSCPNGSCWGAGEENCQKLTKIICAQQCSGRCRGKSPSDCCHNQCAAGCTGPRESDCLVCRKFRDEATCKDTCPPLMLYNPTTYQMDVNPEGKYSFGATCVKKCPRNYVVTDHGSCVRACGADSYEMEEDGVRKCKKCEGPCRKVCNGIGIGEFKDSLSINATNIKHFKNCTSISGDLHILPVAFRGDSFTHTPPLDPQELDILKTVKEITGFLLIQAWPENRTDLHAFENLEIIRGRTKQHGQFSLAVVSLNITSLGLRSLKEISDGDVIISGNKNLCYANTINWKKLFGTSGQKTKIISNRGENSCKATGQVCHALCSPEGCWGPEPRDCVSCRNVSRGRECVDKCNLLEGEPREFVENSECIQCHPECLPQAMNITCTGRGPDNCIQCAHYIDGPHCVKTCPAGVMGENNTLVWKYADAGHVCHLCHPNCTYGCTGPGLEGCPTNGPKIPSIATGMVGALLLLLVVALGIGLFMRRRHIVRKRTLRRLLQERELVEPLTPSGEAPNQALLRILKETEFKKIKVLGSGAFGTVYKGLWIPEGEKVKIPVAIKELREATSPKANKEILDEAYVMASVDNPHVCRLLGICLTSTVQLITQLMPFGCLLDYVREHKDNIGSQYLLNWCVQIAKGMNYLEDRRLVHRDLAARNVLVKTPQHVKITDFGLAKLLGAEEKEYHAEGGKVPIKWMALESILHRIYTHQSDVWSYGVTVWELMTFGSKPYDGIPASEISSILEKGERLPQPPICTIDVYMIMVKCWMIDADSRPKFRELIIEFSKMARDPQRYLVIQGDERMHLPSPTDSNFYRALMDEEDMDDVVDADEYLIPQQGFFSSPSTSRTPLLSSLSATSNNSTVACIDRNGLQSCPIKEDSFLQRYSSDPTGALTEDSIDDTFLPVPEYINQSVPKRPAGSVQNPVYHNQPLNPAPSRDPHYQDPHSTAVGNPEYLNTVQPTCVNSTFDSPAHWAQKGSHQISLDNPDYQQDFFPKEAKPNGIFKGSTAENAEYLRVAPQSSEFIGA

The term IC50 denotes the concentration at which inhibition is half-maximal. Low values mean greater potency in that assay, high ones weaker potency in that assay. The compound `O=C(Nc1ccc(Br)cc1)NN1C(=O)c2ccccc2C1=O` [7c, 1-(4-Bromophenyl)-3-(1,3-dioxoisoindolin-2-yl)urea] showed a half-inhibitory concentration (IC50) of 42.9 ± 0.8 nM.
